From patent publication US11021444B2, “Antiviral compounds” (priority 2013, dated 2021)
Read-outs that look alike come from different tables or passages of the source.

Key:
[1] = test system: Respiratory Syncytial Virus (RSV) long strain; assay: microbe, parasite or virus in culture; type: cell-based; details: human respiratory syncytial virus, Tables A and B list compounds by EC50 band
Description: (§1) CPE reduction assays are performed as described by Sidwell and Huffman et al., Appl. Microbiol. (1971) 22(5):797-801 with slight modifications. HEp-2 cells (ATCC #, CCL-23) are seeded at a density of 1,500 cells/30 μl/well into the 384-well cell plate(s) (Corning #3701) one day prior to the assay. Compounds are added into 384-well cell plates by Labcyte POD 810 Plate Assembler system. Each of the test compounds is provided to duplicate wells of a 384-well cell plate at final concentrations starting from 100 μM or 1 μM using 1/3 stepwise dilutions for 9 points. Quick-thaw Respiratory Syncytial Virus (RSV) long strain (ATCC #VR-26) stock in a 37° C. water bath. Place on ice until ready to use. Viruses are diluted to the concentration of 100 TCID50/30 μL with medium and 30 μl diluted RSV are added into related wells of 384-well cell plates. For each plate, sixteen wells are set aside as uninfected, untreated cell controls (CC), and nine wells per test plate receive virus only as a control for virus replication (VC). The final DMSO concentration of all wells is 1%. Place the plates at 37° C., 5% CO2 for 5 days.
After 5 days incubation, observe the CPE of cells in all wells. […] Six μl of cell counting kit-8 reagent (CCK-8, Dojindo Molecular Technologies Inc., CK04-20) are added to each well, which allows colorimetric assays to determine the number of viable cells through the dehydrogenase activity detection. After 3-4 hour incubation, the absorbance of each well is measured with a spectrophotometric plate reader at 450 nm wavelength, using a 630 nm filter as background according to manufacturer's instruction.

[2] = Cytotoxicity Determination (CCK-8, without addition of virus); type: cell-based; details: human, 50% cytotoxicity concentration (CC50)
Description: as §1
In order to determine the compound cytotoxicity, in parallel, each of the compounds is applied to duplicate wells in a 384-well cell plate at serial final concentrations starting from 100 μM using 1/2 stepwise dilutions for 7 points without addition of virus. Incubate the cells at 37° C., 5% CO2 for 5 days. Add 6 μL CCK-8 into each well and incubate in a CO2 incubator at 37° C. for 3-4 hours.

[3] = molecular target: recombinant RSV complex (Human respiratory syncytial virus A, UniProt P28887); assay: RSV Polymerase Inhibition Assay; type: biochemical
Description: Standard RSV polymerase assays were conducted in the presence of 10 nM recombinant RSV complex in a reaction buffer containing Tris-HCl pH7.5, 6 mM MgCl2, and other additives and substrates including RNA oligonucleotides and radionucleotides. Standard reactions were incubated in 96-well plate format for 2 h at 30° C., in the presence of increasing concentration of inhibitor. The reaction was stopped with 90 μL of 0.1M EDTA, and the reaction product was transferred to a “reading” 96-well plate. After washing of the plate, radiolabeled RNA products were detected according to standard procedures with a Trilux Topcount scintillation counter.

[4] = HEp-2, 120 h, read-out: 50% effective concentration (EC50), HEp-2 cells infected with RSV long strain, 5 days, CCK-8 readout
[5] = 120 h, read-out: 50% effective concentration (EC50), HEp-2 cells infected with RSV long strain, 5 days, CCK-8 readout

Sequence of recombinant RSV complex (P28887 whole entry): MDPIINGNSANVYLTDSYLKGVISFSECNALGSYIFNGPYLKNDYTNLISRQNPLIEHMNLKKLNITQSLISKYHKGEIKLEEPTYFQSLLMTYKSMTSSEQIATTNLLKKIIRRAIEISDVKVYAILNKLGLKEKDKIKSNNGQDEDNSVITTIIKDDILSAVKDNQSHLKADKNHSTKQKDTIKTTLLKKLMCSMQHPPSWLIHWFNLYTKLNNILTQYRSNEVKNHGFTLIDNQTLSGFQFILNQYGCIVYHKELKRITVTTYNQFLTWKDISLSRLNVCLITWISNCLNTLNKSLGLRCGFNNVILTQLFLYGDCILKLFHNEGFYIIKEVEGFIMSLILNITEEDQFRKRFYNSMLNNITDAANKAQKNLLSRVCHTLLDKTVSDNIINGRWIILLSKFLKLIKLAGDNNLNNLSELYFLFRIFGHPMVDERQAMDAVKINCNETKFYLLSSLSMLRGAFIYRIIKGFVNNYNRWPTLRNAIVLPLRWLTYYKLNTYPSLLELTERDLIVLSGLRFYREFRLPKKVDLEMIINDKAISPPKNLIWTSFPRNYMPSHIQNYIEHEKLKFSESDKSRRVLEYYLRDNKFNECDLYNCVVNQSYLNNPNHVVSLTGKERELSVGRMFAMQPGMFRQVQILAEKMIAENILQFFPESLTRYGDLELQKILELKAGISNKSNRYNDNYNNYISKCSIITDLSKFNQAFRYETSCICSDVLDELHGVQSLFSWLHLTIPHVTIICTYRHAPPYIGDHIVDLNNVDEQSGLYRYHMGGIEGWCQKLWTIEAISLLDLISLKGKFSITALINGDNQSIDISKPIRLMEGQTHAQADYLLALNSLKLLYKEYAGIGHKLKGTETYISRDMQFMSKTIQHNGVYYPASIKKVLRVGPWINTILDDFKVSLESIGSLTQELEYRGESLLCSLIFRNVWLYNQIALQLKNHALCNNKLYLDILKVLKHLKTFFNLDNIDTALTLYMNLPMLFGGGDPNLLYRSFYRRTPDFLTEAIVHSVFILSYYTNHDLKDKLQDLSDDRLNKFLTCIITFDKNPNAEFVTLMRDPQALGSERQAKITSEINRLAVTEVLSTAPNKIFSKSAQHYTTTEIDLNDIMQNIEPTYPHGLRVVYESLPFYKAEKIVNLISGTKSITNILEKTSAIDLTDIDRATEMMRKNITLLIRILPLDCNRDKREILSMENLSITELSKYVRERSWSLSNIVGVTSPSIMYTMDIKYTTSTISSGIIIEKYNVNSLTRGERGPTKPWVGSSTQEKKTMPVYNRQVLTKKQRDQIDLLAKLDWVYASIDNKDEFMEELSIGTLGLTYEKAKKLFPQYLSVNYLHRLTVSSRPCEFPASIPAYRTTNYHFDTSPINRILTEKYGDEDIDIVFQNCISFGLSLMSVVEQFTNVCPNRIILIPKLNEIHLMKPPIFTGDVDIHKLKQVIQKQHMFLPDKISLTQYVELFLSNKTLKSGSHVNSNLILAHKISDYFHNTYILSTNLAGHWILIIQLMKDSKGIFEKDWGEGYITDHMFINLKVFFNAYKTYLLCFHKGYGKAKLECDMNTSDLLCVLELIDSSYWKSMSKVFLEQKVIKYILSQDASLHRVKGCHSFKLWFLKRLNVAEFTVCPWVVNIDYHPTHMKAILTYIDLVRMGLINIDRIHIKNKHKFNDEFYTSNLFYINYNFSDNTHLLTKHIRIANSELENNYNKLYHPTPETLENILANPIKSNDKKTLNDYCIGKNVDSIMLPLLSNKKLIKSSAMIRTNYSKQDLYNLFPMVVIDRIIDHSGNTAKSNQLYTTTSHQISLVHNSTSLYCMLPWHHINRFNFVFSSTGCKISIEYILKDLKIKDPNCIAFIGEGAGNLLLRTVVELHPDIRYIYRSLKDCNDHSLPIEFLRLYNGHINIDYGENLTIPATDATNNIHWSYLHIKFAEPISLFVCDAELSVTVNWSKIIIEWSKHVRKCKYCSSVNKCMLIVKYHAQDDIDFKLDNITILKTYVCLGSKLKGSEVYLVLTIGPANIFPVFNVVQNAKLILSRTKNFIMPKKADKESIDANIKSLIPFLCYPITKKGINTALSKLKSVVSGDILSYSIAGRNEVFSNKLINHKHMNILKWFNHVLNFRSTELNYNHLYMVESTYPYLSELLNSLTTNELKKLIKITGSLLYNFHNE
Sequence of recombinant RSV complex (P03421 whole entry, further chain): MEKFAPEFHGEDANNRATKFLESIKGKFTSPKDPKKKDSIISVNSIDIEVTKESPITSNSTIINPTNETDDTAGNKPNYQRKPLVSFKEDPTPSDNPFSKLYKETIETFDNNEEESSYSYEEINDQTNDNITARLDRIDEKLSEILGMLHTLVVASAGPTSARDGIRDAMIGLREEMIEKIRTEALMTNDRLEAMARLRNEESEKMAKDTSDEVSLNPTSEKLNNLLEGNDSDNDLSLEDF

| SMILES | EC50 [1, 4] | CC50 at 5 days [2] | IC50 [3] | EC50 [1, 5] |
| --- | --- | --- | --- | --- |
| COc1cc(C(=O)NCC(N)(c2ccc(OC)c(-c3ccc(F)c(Cl)c3)n2)C(F)F)ccc1OC1CC1 (stereo not drawn) [Compound 517] | < 1 µM | 10 to 100 µM | < 1 µM | – |
| COc1cc(C(=O)NCC(C)(O)c2cc3c(c(-c4ccc(F)c(Cl)c4)n2)NCC3)ccc1OCCF (single isomer, unassigned) [Compound 294] | < 1 µM | > 100 µM | < 10 µM | – |
| CC(C)(N)c1cc(-c2ccc(F)c(Cl)c2)nc(C(O)(CNC(=O)c2cncs2)C(F)(F)F)c1 (stereo not drawn) [Compound 278] | 1 to 50 µM | 10 to 100 µM | < 1 µM | – |
| COc1cc(C(=O)NCC(F)c2ccc(OC)c(-c3ccc(F)c(Cl)c3)n2)ccc1OCCO (stereo not drawn) [Compound 149] | 1 to 50 µM | 10 to 100 µM | < 10 µM | – |
| COc1cc(C(=O)NCC(O)(c2cc3c(c(-c4ccc(F)nc4)n2)OCC3(C)N)C(F)(F)F)ccc1OCCO (stereo not drawn) [Compound 492] | 1 to 50 µM | > 100 µM | < 10 µM | – |
| COc1cc(C(=O)NCC(O)(c2ccc(OC)c(-c3ccc(F)c(Cl)c3)n2)C(F)(F)F)ccc1OCC1(O)CC1 (stereo not drawn) [Compound 270] | – | 10 to 100 µM | < 1 µM | < 1 µM |
| COc1cc(C(=O)NC[C@@](O)(c2cc3c(c(-c4ccc(F)cc4)n2)OC[C@]3(C)N)C(F)(F)F)ccc1OC[C@@H](C)O [Compound 629] | < 1 µM | 10 to 100 µM | < 1 µM | – |
| COc1cc(C(=O)NCC(O)(CO)c2cc3c(c(-c4ccc(F)c(Cl)c4)n2)OCC3(C)C)ccc1OC1CCNC1=O (stereo not drawn) [Compound 219] | < 1 µM | 10 to 100 µM | < 1 µM | – |
| COc1cc(C(=O)NCC(C)(O)c2cc3cc[nH]c3c(-c3ccc(F)c(Cl)c3)n2)ccc1OCCF (single isomer, unassigned) [Compound 296] | < 1 µM | 10 to 100 µM | < 10 µM | – |
| CC(C)(N)c1cc(-c2ccc(F)c(Cl)c2)nc(C(O)(CNC(=O)c2cscn2)C(F)(F)F)c1 (stereo not drawn) [Compound 277] | 1 to 50 µM | 10 to 100 µM | < 10 µM | – |
| COc1cc(C(=O)NCC(O)(c2cc(C(N)=O)cc(-c3ccc(F)c(Cl)c3)n2)C(F)(F)F)ccc1OC1CC1 (stereo not drawn) [Compound 464] | < 1 µM | 10 to 100 µM | < 1 µM | – |
| CC1(N)COc2c1cc(C(O)(CNC(=O)c1ccc(OCCO)c(F)c1)C(F)(F)F)nc2-c1ccc(F)cc1 (stereo not drawn) [Compound 476] | < 1 µM | 10 to 100 µM | < 1 µM | – |
| COc1cc(C(=O)NCC(O)(CN2CCOCC2)c2ccc(OC)c(-c3ccc(F)c(Cl)c3)n2)ccc1OCCO (stereo not drawn) [Compound 181] | < 1 µM | > 100 µM | < 1 µM | – |
| COc1cc(C(=O)NCC(O)(c2ccc(OC)c(-c3ccc(F)c(Cl)c3)n2)C(F)(F)F)ccc1OC1CCCC1 (stereo not drawn) [Compound 236] | 1 to 50 µM | > 100 µM | < 1 µM | – |
| CC(C)(N)c1cc(-c2ccc(F)cc2)nc(C(O)(CNC(=O)c2ccc3oc(=O)[nH]c3c2)C(F)(F)F)c1 (stereo not drawn) [Compound 610] | – | 10 to 100 µM | < 1 µM | < 1 µM |
| COc1cc(C(=O)NC[C@@](O)(c2cc(C(C)(C)N)cc(-c3ccc(F)cc3)n2)C(F)(F)F)ccc1OCCO [Compound 553] | < 1 µM | 10 to 100 µM | < 1 µM | – |
| COc1ccc(C(O)(CNC(=O)c2ccc(OC3CC3)c(Cl)c2)C(F)(F)F)nc1-c1ccc(F)c(Cl)c1 (stereo not drawn) [Compound 251] | 1 to 50 µM | 10 to 100 µM | < 1 µM | – |
| COc1cc(C(=O)NCC(O)(CO)c2cc3c(c(-c4ccc(F)c(Cl)c4)n2)OCC3(C)C)cc2cccnc12 (stereo not drawn) [Compound 221] | < 1 µM | 10 to 100 µM | < 1 µM | – |
| COc1ccc(C(=O)NCC(OC)c2cccc(-c3csc4c(F)cccc34)n2)cc1OC (stereo not drawn) [Compound 148] | 1 to 50 µM | 10 to 100 µM | < 10 µM | – |
